Reference: patent US10723706B2, “Perk inhibitors and uses thereof in treating diseases associated with aggregation-prone proteins” (Ramot at Tel-Aviv University Ltd., priority 2016, dated 2020)

Experiments:
[1] = target: T1, PERK (eIF2αK3) (Mus musculus, UniProt Q9Z2B5); experiment: ER stress-mediated eIF2α phosphorylation in tunicamycin-treated striatal cells (immunoblotting); assay type: cell-based, murine; settings: STHdhQ7/7 cells, Tun 5 μg/ml for 48 hours; A4 50 μM, PKRi 1 μM
T1 construct: endogenous in cells; host or cells: STHdhQ7/7 murine striatal cells
T1 sequence (Q9Z2B5 29-1114): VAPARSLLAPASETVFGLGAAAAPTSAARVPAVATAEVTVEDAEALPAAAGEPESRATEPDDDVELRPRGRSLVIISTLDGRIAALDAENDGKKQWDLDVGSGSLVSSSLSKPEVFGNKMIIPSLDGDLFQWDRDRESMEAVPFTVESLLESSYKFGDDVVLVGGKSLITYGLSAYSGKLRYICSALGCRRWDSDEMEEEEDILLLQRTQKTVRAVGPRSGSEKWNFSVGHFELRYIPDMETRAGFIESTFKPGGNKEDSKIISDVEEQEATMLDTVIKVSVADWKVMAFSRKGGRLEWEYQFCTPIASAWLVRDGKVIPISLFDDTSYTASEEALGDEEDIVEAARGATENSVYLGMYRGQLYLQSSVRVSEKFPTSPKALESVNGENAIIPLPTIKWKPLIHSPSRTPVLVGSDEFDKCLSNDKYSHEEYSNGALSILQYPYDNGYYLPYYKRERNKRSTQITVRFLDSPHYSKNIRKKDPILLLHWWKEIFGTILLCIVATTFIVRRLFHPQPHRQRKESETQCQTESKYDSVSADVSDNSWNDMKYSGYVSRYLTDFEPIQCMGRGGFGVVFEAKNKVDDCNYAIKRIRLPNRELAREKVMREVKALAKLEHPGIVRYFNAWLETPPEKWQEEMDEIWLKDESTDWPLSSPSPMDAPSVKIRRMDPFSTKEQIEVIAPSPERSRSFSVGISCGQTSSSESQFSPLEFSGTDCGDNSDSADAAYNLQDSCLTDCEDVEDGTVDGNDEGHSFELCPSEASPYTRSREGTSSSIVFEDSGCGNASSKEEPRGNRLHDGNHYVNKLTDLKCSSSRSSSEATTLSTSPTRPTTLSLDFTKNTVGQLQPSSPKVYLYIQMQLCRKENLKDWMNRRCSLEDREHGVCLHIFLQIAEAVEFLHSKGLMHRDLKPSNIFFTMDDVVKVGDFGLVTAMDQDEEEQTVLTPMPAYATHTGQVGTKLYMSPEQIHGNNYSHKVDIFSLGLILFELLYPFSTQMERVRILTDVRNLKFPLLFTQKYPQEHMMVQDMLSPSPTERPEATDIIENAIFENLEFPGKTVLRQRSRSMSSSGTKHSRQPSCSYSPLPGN
Experimental: (§1) STHdhQ7/7 and STHdhQ111/111 cells were grown as described in Leitman et al. [PLoS One 2014, 9(3):e90803].
(§2) Cells were treated with Tun ([…]) or with A4, PKRi, poly-I:C or exemplary PERK inhibitors of the present embodiments, by adding the tested compound to the cell medium at the indicated concentrations and times. Cell lysis and immunoblotting was performed as described in Leitman et al. [PLoS One 2014, 9(3):e90803].
As the activity of PERK was particularly affected in the Huntington's disease (HD) models [Leitman et al., PLoS One 2014, 9(3):e90803], the therapeutic capacity of a PERK inhibitor named A4 [Wang et al., Chem Biol Drug Des 2010, 76:480-495] was tested in cells expressing polyQ-expanded Htt, as depicted in Background art FIG. 1.

[2] = target: T2, PKR (eIF2αK2) (Mus musculus, UniProt Q03963); experiment: PKR activity induced with poly-I:C in cells; assay type: cell-based
T2 construct: endogenous in cells
T2 sequence (Q03963 1-515): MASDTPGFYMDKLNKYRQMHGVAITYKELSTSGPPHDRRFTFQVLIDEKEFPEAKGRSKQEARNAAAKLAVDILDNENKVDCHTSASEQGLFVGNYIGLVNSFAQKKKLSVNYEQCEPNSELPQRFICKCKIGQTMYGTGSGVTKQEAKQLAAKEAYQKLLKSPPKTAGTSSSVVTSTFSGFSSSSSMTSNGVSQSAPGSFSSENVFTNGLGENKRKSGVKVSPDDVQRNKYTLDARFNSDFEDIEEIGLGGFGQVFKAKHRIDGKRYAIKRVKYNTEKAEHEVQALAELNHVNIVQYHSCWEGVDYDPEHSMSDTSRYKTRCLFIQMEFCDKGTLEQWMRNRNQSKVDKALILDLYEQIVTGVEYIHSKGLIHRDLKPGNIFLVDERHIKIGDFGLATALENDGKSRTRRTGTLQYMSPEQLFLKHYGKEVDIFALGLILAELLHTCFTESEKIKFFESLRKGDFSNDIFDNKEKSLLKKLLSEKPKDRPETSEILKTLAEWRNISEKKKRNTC
Experimental: as §2

[3] = test system: STHdhQ111/111 cells; experiment: Rescue from UPR-induced cell death (tunicamycin), PI cell cycle FACS, sub-G0/G1 fraction; assay type: cell-based; settings: Tun for 48 hours
Experimental: as §1
After the indicated treatment times in full medium or in DMEM without serum, cells were incubated with propidium iodide (PI) solution ([…]) and read by flow cytometry as described in Leitman et al. [PLoS One 2014, 9(3):e90803]. Cells in sub-G0/G1 were counted as apoptotic/dead cells.
The activity of the novel inhibitors, compared to A4, in preventing cytotoxicity induced by pathogenic Htt, was then tested. A stable murine striatal cell line expressing full-length polyQ-expanded Htt, STHdhQ^111/111, was used.

[4] = target: T3, RIPK1 (Homo sapiens, UniProt Q13546); settings: Rojas-Rivera et al. 2017; cited from earlier work
T3 sequence (Q13546 1-671): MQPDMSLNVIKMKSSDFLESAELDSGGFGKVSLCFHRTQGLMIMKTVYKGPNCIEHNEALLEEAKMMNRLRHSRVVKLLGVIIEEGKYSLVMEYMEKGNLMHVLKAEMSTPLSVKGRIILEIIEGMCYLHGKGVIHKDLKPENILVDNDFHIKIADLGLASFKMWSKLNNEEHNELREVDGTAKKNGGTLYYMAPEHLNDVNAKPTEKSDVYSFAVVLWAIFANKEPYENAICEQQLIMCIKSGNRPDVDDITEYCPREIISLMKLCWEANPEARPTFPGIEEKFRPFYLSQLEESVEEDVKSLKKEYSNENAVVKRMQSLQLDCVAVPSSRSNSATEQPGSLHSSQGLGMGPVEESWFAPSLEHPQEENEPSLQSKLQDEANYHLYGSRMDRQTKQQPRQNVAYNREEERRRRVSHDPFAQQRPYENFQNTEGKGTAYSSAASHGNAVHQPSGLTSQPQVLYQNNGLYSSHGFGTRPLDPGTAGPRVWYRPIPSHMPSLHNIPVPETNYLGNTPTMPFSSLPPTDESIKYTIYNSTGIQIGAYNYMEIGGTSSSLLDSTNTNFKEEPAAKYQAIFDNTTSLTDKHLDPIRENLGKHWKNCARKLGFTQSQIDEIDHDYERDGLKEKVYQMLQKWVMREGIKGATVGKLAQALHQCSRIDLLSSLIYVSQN

[5] = test system: cells; experiment: Intrinsic cytotoxicity on cells; assay type: cell-based
[6] = test system: betaTC-tet pancreatic islet beta-cell line; experiment: Toxicity in pancreatic beta cells; assay type: cell-based, mouse; settings: betaTC-tet cells, tested concentration range up to 500 nm
Experimental: MK-28 toxicity was tested in pancreatic beta cells, the type of cell that is most sensitive when ER stress response pathways are affected. A conditionally transformed mouse pancreatic islet beta-cell line (betaTC-tet), such as described by Efrat [Ann NY Acad Sci 1999, 875:286-293], was used. These cells produce high amounts of insulin, resulting in a high protein load in the ER, making them very sensitive to ER stress and other stimuli, such as cytokine effects. Compromising any of the UPR branches leads to cytotoxicity in these cells. MK-28 was compared to the ER stressor tunicamycin (Tun).

## O=C1Nc2ccc3ncsc3c2/C1=C/c1cnc[nH]1 [PKRi, reference compound]
[1]
  inhibition of ER stress-mediated eIF2α phosphorylation: not by PKRi
[2]
  inhibition of PKR activity: inhibited
[3]
  rescue from UPR-induced cell death (cytotoxicity): had no effect
[3]; listed as PKR inhibitor
  rescue from UPR-induced cell death (cytotoxicity): no effect

## Cc1cccc(CC(=O)N2CCc3c2ccc(-c2cn(C)c4ncnc(N)c24)c3F)n1 [GSK2656157]
[4]
  inhibition of RIPK1: potent inhibitors of RIPK1

## COc1cc(/C=N\N(C)c2nc(-c3ccccc3)cc(-c3ccccc3)n2)ccc1O [Compound 1, 2-{N-methyl-N′-(3-methoxy-4-hydroxybenzylidene)hydrazinyl}-4,6-diphenylpyrimidine]
[3]
  rescue from UPR-induced cell death (cytotoxicity): more potent than A4
[5]
  intrinsic cytotoxicity on cells: neither MPGL1 nor MK-28 exhibited intrinsic cytotoxicity

## Cn1cc(-c2ccc3c(c2)CCN3C(=O)Cc2cccc(C(F)(F)F)c2)c2c(N)ncnc21 [GSK2606414]
[4]
  inhibition of RIPK1: potent inhibitors of RIPK1

## Tunicamycin [reference compound]
[6]
  toxicity in pancreatic beta cells: toxic
